Assay results: ChEMBL document CHEMBL1138396, “Constrained azacyclic analogues of the immunomodulatory agent FTY720 as molecular probes for sphingosine 1-phosphate receptors” (Bioorg Med Chem Lett, 2007)

Tests used:
[1] = biological target: Sphingosine 1-phosphate receptor 3 (Homo sapiens, UniProt Q99500); assay: Activity at human recombinant S1P3 receptor expressed in CHO cells assessed as increase in calcium release by FLIPR assay; type: functional, cell-based
[2] = biological target: Sphingosine 1-phosphate receptor 5 (Homo sapiens, UniProt Q9H228); assay: Activity at human recombinant S1P5 receptor expressed in CHO cells assessed as increase in calcium release by FLIPR assay; type: functional, cell-based
[3] = biological target: T1, Sphingosine 1-phosphate receptor 4 (Homo sapiens, UniProt O95977); assay: Activity at human recombinant S1P4 receptor expressed in CHO cells assessed as increase in calcium release by FLIPR assay; type: functional, cell-based
T1 sequence (O95977 whole entry): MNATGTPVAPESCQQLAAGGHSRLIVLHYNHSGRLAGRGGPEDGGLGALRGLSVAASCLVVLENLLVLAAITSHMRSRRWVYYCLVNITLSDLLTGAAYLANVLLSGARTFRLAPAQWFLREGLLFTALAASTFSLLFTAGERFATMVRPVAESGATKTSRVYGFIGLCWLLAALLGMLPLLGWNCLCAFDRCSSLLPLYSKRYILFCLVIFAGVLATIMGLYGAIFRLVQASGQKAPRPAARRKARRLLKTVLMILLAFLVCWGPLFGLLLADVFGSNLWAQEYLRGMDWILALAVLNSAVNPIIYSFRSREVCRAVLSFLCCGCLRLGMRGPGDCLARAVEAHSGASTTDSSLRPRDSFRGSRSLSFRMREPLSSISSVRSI

[4] = biological target: Sphingosine 1-phosphate receptor 1 (Homo sapiens, UniProt P21453); assay: Activity at human recombinant S1P1 receptor expressed in CHO cells assessed as increase in calcium release by FLIPR assay; type: functional, cell-based
[5] = biological target: T2, Sphingosine kinase 2 (Homo sapiens) (UniProt Q9NRA0); assay: Effect on rate of phosphorylation of human recombinant SPHK2 expressed in HEK293 cells; type: cell-based
T2 sequence (whole entry): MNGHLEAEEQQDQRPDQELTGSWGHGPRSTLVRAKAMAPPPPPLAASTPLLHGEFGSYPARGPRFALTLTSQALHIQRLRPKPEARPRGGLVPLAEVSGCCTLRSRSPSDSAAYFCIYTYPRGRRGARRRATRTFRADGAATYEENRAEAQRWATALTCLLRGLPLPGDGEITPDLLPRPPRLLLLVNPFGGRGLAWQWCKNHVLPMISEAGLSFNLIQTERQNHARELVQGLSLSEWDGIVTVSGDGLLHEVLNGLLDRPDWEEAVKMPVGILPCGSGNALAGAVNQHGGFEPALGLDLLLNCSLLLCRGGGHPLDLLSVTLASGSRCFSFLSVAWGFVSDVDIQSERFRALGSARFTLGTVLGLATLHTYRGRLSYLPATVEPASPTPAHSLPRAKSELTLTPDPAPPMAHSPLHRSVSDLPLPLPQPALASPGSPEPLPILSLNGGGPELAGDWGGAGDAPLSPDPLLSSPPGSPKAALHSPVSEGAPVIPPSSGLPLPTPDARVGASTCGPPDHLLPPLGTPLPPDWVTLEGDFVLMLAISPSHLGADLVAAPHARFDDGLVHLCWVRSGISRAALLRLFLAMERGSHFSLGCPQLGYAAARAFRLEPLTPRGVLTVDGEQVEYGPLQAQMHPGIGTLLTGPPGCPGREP

Chain of Sphingosine 1-phosphate receptor 5 (Q9H228 whole entry): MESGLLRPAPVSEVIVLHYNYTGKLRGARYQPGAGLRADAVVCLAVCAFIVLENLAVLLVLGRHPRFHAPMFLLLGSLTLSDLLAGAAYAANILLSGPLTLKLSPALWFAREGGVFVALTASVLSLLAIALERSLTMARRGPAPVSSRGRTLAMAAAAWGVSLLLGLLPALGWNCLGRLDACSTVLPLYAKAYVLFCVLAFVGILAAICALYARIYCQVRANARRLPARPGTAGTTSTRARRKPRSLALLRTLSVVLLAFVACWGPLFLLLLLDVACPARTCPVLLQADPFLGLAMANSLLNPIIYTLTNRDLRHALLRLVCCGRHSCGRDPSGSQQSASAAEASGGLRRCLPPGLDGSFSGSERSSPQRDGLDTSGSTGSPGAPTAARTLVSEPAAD
Chain of Sphingosine 1-phosphate receptor 3 (Q99500 whole entry): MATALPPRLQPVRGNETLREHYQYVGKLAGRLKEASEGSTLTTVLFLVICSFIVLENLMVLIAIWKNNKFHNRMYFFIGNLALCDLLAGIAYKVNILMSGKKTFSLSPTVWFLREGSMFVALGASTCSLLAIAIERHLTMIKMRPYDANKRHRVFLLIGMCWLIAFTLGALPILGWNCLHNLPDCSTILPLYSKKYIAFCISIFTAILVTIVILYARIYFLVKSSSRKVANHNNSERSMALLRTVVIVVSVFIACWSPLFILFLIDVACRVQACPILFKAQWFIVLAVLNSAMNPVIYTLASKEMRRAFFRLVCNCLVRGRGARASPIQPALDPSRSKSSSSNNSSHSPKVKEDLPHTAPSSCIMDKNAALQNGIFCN
Chain of Sphingosine 1-phosphate receptor 1 (P21453 whole entry): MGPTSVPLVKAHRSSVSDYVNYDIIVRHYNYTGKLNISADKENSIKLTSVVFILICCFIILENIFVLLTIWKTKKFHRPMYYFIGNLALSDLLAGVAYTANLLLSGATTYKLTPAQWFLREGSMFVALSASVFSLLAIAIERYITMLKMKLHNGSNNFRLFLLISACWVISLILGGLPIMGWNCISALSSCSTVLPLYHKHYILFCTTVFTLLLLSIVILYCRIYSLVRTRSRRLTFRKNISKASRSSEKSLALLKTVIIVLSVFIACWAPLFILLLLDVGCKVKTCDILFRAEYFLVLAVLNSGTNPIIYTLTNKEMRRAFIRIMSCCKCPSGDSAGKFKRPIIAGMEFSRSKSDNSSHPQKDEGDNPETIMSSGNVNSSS

CCCCCCCCc1ccc([C@H]2C[C@H](COP(=O)(O)O)N[C@@H]2CO)cc1
EC50 [1]: > 1000 nM
EC50 [2]: 10.2 nM
EC50 [3]: 7.4 nM
EC50 [4]: > 1000 nM

CCCCCCCCc1ccc([C@@H]2C[C@@H](COP(=O)(O)O)N[C@H]2CO)cc1
EC50 [1]: > 1000 nM
EC50 [2]: 5.8 nM
EC50 [3]: 16.8 nM
EC50 [4]: > 1000 nM

CCCCCCCCc1ccc(CC[C@@](N)(CO)COP(=O)(O)O)cc1
EC50 [3]: 18.6 nM

CCCCCCCCc1ccc([C@@H]2C[C@@H](CO)N[C@H]2CO)cc1
Activity [5]: < 0.1%

CCCCCCCCc1ccc([C@H]2C[C@H](CO)N[C@@H]2CO)cc1
Activity [5]: 55%

CCCCCCCCCCCCC/C=C/[C@@H](O)[C@@H](N)CO
Activity [5]: 100%

CCCCCCCCc1ccc([C@@H]2C[C@@H](CO)N[C@H]2COP(=O)(O)O)cc1
EC50 [1]: > 1000 nM
EC50 [2]: 21.3 nM
EC50 [3]: 33.1 nM
EC50 [4]: > 1000 nM

CCCCCCCCCCCCC/C=C/[C@@H](O)[C@@H](N)COP(=O)(O)O
EC50 [1]: 1.6 nM
EC50 [3]: 7.9 nM
EC50 [4]: 0.55 nM

CCCCCCCCc1ccc(CCC(N)(CO)CO)cc1
Activity [5]: 13%

CCCCCCCCc1ccc([C@H]2C[C@H](CO)N[C@@H]2COP(=O)(O)O)cc1
EC50 [1]: > 1000 nM
EC50 [2]: 134 nM
EC50 [3]: 347 nM
EC50 [4]: > 1000 nM
